Marks after values point to notes of the source that are not given here.
Experiments:
[1] = biological target: T1, Equine serum BChE (Equus caballus, UniProt P81908); experiment: In vitro inhibition of BChE activity (spectrophotometric, BTCh iodide substrate); assay type: biochemical; details: for Equine serum BChE, (%) inhibition: compound concentration 20 µM, mean ± SEM, n = 3; for inhibition at 20 µM: read-out: Equine serum BChE, (%) inhibition
T1 construct: Equine serum BChE, (%); purchased Sigma-Aldrich; host or cells: equine serum
Method: (§1) Enzymes, substrates, and reference compounds were from Sigma-Aldrich (St. Louis, MO, United States). […] Experimental conditions: K,Na-phosphate buffer (100 mM), 25°С, pH 7.5 for AChE and BChE and pH 8.0 for CES assay. Measurements were carried out on a BioRad Benchmark Plus microplate spectrophotometer (Hercules, CA, United States).
(§2) Test compounds were dissolved in DMSO; final concentration of solvent in the incubation mixture was 2% (v/v).

[2] = tested on: Porcine liver CES; experiment: In vitro inhibition of CES activity (spectrophotometric, 4-NPA substrate); assay type: biochemical; details: compound concentration 20 µM; mean ± SEM, n = 3
Method: as §1, §2

[3] = biological target: T2, β-amyloid (1-42) (Aβ42) (Homo sapiens, UniProt P05067); experiment: Inhibition of Aβ42 self-aggregation, thioflavin T fluorescence method; assay type: biochemical; details: Aβ42 50 µM, compound 100 µM, 24 h, 37°C; mean ± SEM, n = 3
T2 construct: purchased AnaSpec Inc
Method: Lyophilized HFIP-pretreated Aβ42 (AnaSpec Inc., 0.5 mg) was dissolved in DMSO to obtain a stable 500 μM solution. […] Myricetin and Propidium iodide in the same concentration were used as references.
Therefore, the decrease in ThT fluorescence in the presence of the studied compound correlates with its activity to inhibit the formation of amyloid aggregates.

[4] = FRAP (ferric reducing antioxidant power) assay; details: Trolox equivalents; 1 h, 37°C, pH 3.6
Method: The ferric reducing antioxidant power (FRAP) assay proposed by [Benzie and Strain (1996)]; [Benzie and Strain (1999)] modified to be performed in 96-well microplates as described in detail in [Makhaeva et al. (2020)] was used. 10 μL (0.5 mM) of the tested or reference compounds were mixed with 240 µL of FRAP reagent (2.5 mL of 10 mM TPTZ (2,4,6-tris(2-pyridyl)-s-triazine) solution in 40 mM HCl, 2.5 mL of 20 mM FeCl3 in distilled water and 25 mL of 0.3 M acetate buffer pH 3.6); the absorbance of the mixture was measured spectrophotometrically (λ = 593 nm) with a FLUOStar OPTIMA microplate reader at 600 nm after a 1 h incubation at 37°C against a blank. Trolox was used as a reference compound. The results were expressed as Trolox equivalents (TE)—the ratio of the concentrations of Trolox and the test compound resulting in the same effect on ferric reducing activity.

[5] = biological target: T3, BChE (Equus caballus, UniProt P81908); experiment: Kinetic studies of BChE inhibition (Lineweaver-Burk); assay type: biochemical, equine
T3 construct: Equine serum BChE, (%); purchased Sigma-Aldrich; host or cells: equine serum
Method: Mechanism of BChE inhibition was assessed by a detailed analysis of enzyme kinetics with three increasing concentrations of inhibitor and six substrate concentrations as described in detail in [Makhaeva et al. (2017)].
Lineweaver-Burk plots-double reciprocal representations of Michaelis-Menten parameters-were used to assess the type of inhibition.

[6] = ABTS radical cation scavenging activity assay; details: for ABTS•+-scavenging activity, TEAC: Trolox equivalent antioxidant capacity, ratio of slopes compound/Trolox; for IC50: concentration for 50% reduction of ABTS radical cation
Method: Radical scavenging activity of the compounds was evaluated using the ABTS radical cation (2,2ʹ-azinobis-(3-ethylbenzothiazoline-6-sulfonic acid), ABTS^•+) decolorization assay ([Re et al., 1999]), with minor modifications described in detail in [Makhaeva et al. (2019a)]. To prepare the solution of ABTS^•+, equal volumes of aqueous solutions of 7 mM ABTS and 2.45 mM potassium persulfate were incubated for 12–16 h at room temperature in the dark. Radical scavenging capacity of the compounds was determined by mixing 10 μL of compound solution in DMSO with 240 μL of ABTS^•+ working solution in ethanol (100 μM final concentration). The reduction in ABTS^•+ absorbance was measured spectrophotometrically at 734 nm using a xMark UV/VIS microplate spectrophotometer (Bio-Rad, Hercules, CA, United States) for 1 h with an interval of 10 min compared to a standard synthetic antioxidant Trolox (6-hydroxy-2,5,7,8-tetramethylchroman-2-carboxylic acid). Ascorbic acid was used as a positive control.
The antioxidant activity of the compounds was reported as Trolox equivalent antioxidant capacity (TEAC values) as the ratio of the slopes of the concentration−response curves, test compound/Trolox. The IC50 values for the test compounds were also determined.

[7] = biological target: T4, Human erythrocyte AChE (Homo sapiens, UniProt P22303); experiment: In vitro inhibition of AChE activity (spectrophotometric, ATCh iodide substrate); assay type: biochemical; details: for inhibition at 20 µM: read-out: Human erythrocyte AChE, (%) inhibition; for Human erythrocyte AChE, (%) inhibition: compound concentration 20 µM, mean ± SEM, n = 3
T4 construct: Human erythrocyte AChE, (%); purchased Sigma-Aldrich; host or cells: human erythrocytes
Method: as §1, §2

T2 sequence (P05067 672-713 limits assumed): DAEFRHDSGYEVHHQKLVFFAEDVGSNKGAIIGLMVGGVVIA
T1 sequence (P81908 whole entry): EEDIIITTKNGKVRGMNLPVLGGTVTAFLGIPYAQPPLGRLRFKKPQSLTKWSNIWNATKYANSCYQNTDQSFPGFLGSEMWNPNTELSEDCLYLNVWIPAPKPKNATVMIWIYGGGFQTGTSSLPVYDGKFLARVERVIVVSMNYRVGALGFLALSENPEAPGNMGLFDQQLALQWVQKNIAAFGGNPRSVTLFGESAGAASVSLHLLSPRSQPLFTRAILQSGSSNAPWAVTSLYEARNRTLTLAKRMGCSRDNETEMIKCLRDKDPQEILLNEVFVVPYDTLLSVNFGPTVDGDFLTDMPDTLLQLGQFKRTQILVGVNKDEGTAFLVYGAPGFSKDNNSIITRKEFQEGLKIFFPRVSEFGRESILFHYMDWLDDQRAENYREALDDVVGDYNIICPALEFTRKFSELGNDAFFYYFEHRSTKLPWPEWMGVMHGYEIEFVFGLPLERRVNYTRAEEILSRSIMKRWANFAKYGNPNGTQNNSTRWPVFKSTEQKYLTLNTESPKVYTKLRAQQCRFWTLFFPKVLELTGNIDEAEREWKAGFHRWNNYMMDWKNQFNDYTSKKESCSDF
T4 sequence (P22303 32-617 isoform P22303-2 limits assumed): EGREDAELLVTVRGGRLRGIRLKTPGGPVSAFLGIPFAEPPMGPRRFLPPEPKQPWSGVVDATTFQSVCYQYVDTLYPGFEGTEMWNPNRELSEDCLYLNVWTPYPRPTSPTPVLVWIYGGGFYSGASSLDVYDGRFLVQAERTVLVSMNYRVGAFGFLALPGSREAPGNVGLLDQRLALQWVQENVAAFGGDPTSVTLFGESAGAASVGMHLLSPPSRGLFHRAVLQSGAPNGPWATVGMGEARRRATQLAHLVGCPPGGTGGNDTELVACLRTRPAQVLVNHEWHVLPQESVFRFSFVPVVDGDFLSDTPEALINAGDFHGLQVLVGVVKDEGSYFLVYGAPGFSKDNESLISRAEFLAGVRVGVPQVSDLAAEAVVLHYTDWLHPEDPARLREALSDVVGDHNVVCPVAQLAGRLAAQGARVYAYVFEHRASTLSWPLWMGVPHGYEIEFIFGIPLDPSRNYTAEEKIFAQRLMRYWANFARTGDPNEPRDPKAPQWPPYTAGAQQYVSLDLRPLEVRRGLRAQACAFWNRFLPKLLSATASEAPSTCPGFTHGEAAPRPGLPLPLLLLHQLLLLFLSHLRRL
T3 sequence (P81908 whole entry): as the sequence (P81908 whole entry) above

Structure (SMILES): O=P(OCc1ccccc1)(OCc1ccccc1)C1c2ccccc2Nc2ccccc21 [Compound 1d, 9-bis(benzyloxy)phosphoryl-9,10-dihydroacridine]
- IC50 [1]: 2.9 ± 0.23 µM
- Porcine liver CES, (%) inhibition [2]: 18.7 ± 1.4%
- inhibition at 100 µM [3]: 58.9 ± 4.7%
- FRAP Fe3+-reducing activity, TE [4]: 0.97 ± 0.06 TE
- type of BChE inhibition ([5]; Lineweaver-Burk analysis): mixed type of inhibition
- Ki ([5]; steady state inhibition, read-out: competitive component (Ki) of BChE inhibition): 2.22 ± 0.19 µM
- ABTS•+-scavenging activity, TEAC [6]: 0.97 ± 0.04
- IC50 [6]: 20.8 ± 1.3 µM
- inhibition at 20 µM [7]: 7.6 ± 1.2%

Structure (SMILES): O=[N+]([O-])c1ccc(OP(=O)(O)Oc2ccc([N+](=O)[O-])cc2)cc1 [BNPP, reference compound]
- Porcine liver CES, (%) inhibition [2]: 99.1 ± 0.93 ^e %

Structure (SMILES): COP(=O)(OC)C1c2ccccc2Nc2ccccc21 [Compound 1a]
- Equine serum BChE, (%) inhibition [1]: 21.3 ± 1.7%
- Porcine liver CES, (%) inhibition [2]: n.а
- Inhibition of Aβ42 self-aggregation, (%) [3]: 4.9 ± 0.4%
- FRAP Fe3+-reducing activity, TE [4]: 1.60 ± 0.01 TE
- ABTS•+-scavenging activity, TEAC [6]: 0.99 ± 0.04
- IC50 [6]: 21.3 ± 1.4 µM
- Human erythrocyte AChE, (%) inhibition [7]: 5.3 ± 1.3%

Structure (SMILES): O=P(CCc1ccccc1)(CCc1ccccc1)c1c2ccccc2nc2ccccc12 [Compound 2e]
- inhibition at 20 µM [1]: 25.7 ± 2%
- Porcine liver CES, (%) inhibition [2]: 13.5 ± 1.7%
- Inhibition of Aβ42 self-aggregation, (%) [3]: n.а
- inhibition at 20 µM [7]: 10.4 ± 1.3%

Structure (SMILES): CCOP(=O)(OCC)c1c2ccccc2nc2ccccc12 [Compound 2b]
- inhibition at 20 µM [1]: 10.8 ± 1.5%
- Porcine liver CES, (%) inhibition [2]: 10.5 ± 1.3%
- Inhibition of Aβ42 self-aggregation, (%) [3]: n.а
- FRAP Fe3+-reducing activity, TE [4]: 0.07 ± 0.01 TE
- inhibition at 20 µM [7]: 10.4 ± 1.2%

Structure (SMILES): CCOP(=O)(OCC)C1c2ccccc2Nc2ccccc21 [Compound 1b]
- inhibition at 20 µM [1]: 16.9 ± 1.5%
- Porcine liver CES, (%) inhibition [2]: n.а
- inhibition at 100 µM [3]: 8.1 ± 0.8%
- FRAP Fe3+-reducing activity, TE [4]: 1.15 ± 0.01 TE
- ABTS•+-scavenging activity, TEAC [6]: 0.97 ± 0.03
- IC50 [6]: 20.8 ± 1.3 µM
- inhibition at 20 µM [7]: 4.4 ± 1.1%

Structure (SMILES): O=P(Oc1ccccc1)(Oc1ccccc1)c1c2ccccc2nc2ccccc12 [Compound 2c]
- inhibition at 20 µM [1]: 32.7 ± 2.6%
- Porcine liver CES, (%) inhibition [2]: 27.6 ± 2.2%
- inhibition at 100 µM [3]: 3.6 ± 0.3%
- inhibition at 20 µM [7]: 12.4 ± 1.4%

Structure (SMILES): O=P(CCc1ccc(Cl)cc1)(CCc1ccc(Cl)cc1)C1c2ccccc2Nc2ccccc21 [Compound 1f]
- IC50 [1]: 21.7 ± 1.7 µM
- inhibition at 100 µM [3]: 34.1 ± 2.7%
- FRAP Fe3+-reducing activity, TE [4]: 0.81 ± 0.02 TE
- time to reach the maximum degree of ABTS•+ radical binding [6]: 30 min
- ABTS•+-scavenging activity, TEAC [6]: 0.80 ± 0.03
- IC50 [6]: 22.6 ± 0.7 µM
- inhibition at 20 µM [7]: 6.4 ± 1%

Structure (SMILES): O=P(Oc1ccccc1)(Oc1ccccc1)C1c2ccccc2Nc2ccccc21 [Compound 1c]
- IC50 [1]: 48 ± 3.1 µM
- Porcine liver CES, (%) inhibition [2]: 21.6 ± 1.7%
- inhibition at 100 µM [3]: 19.8 ± 1.5%
- FRAP Fe3+-reducing activity, TE [4]: 1.13 ± 0.02 TE
- ABTS•+-scavenging activity, TEAC [6]: 1.13 ± 0.05
- IC50 [6]: 17.8 ± 1.1 µM
- inhibition at 20 µM [7]: 6.3 ± 0.9%

Structure (SMILES): COP(=O)(OC)c1c2ccccc2nc2ccccc12 [Compound 2a]
- Equine serum BChE, (%) inhibition [1]: 9.0 ± 1.4%
- Porcine liver CES, (%) inhibition [2]: 4.3 ± 1.1%
- Inhibition of Aβ42 self-aggregation, (%) [3]: 4.9 ± 0.4%
- FRAP Fe3+-reducing activity, TE [4]: 0.08 ± 0.02 TE
- Human erythrocyte AChE, (%) inhibition [7]: 9.1 ± 1.2%

Structure (SMILES): CC[N+](C)(CC)CCC[n+]1c(-c2ccccc2)c2cc(N)ccc2c2ccc(N)cc21.[I-].[I-] [Propidium iodide, reference compound]
- Inhibition of Aβ42 self-aggregation, (%) [3]: 90.7 ± 7.1%

Structure (SMILES): O=P(CCc1ccc(Cl)cc1)(CCc1ccc(Cl)cc1)c1c2ccccc2nc2ccccc12 [Compound 2f]
- inhibition at 20 µM [1]: 20.4 ± 1.6%
- Porcine liver CES, (%) inhibition [2]: 18.4 ± 1.4%
- inhibition at 100 µM [3]: 11.2 ± 0.8%
- inhibition at 20 µM [7]: 15.2 ± 1.3%

Structure (SMILES): Cc1c(C)c2c(c(C)c1O)CCC(C)(C(=O)O)O2 (centres unmarked) [Trolox, 6-hydroxy-2,5,7,8-tetramethylchroman-2-carboxylic acid, reference compound]
- FRAP Fe3+-reducing activity, TE [4]: 1.0 TE
- ABTS•+-scavenging activity, TEAC [6]: 1.0
- IC50 [6]: 20.1 ± 0.7 µM

Structure (SMILES): O=C1O[C@H]([C@@H](O)CO)C(O)=C1O [Ascorbic acid, reference compound]
- FRAP Fe3+-reducing activity, TE [4]: 1.23 ± 0.11 TE
- ABTS•+-scavenging activity, TEAC [6]: 0.97 ± 0.04
- IC50 [6]: 22.4 ± 2.2 µM

Structure (SMILES): O=P(OCc1ccccc1)(OCc1ccccc1)c1c2ccccc2nc2ccccc12 [Compound 2d]
- IC50 [1]: 6.9 ± 0.55 µM
- times less effective BChE inhibitor than the corresponding dihydroacridine (1d) ([1]; ratio of BChE IC50 values): 2.4
- Porcine liver CES, (%) inhibition [2]: 20.4 ± 1.8%
- Inhibition of Aβ42 self-aggregation, (%) [3]: n.а
- inhibition at 20 µM [7]: 10.8 ± 1.5%

Structure (SMILES): O=P(CCc1ccccc1)(CCc1ccccc1)C1c2ccccc2Nc2ccccc21 [Compound 1e]
- IC50 [1]: 3.22 ± 0.25 µM
- Porcine liver CES, (%) inhibition [2]: 22.2 ± 1.7%
- inhibition at 100 µM [3]: 46.9 ± 4.2%
- FRAP Fe3+-reducing activity, TE [4]: 1.10 ± 0.01 TE
- time to reach the maximum degree of ABTS•+ radical binding [6]: 30 min
- ABTS•+-scavenging activity, TEAC [6]: 0.9 ± 0.03
- IC50 [6]: 21.8 ± 0.9 µM
- inhibition at 20 µM [7]: 8.8 ± 2%

Source: publication PMC10466253, “Derivatives of 9-phosphorylated acridine as butyrylcholinesterase inhibitors with antioxidant activity and the ability to inhibit β-amyloid self-aggregation: potential therapeutic agents for Alzheimer’s disease” (Frontiers in Pharmacology, 2023)
